According to patent publication US20150284362A1, “CARBAZOLE-CONTAINING AMIDES, CARBAMATES, AND UREAS AS CRYPTOCHROME MODULATORS” (ReSet Therapeutics, Inc., priority 2014, published 2015):

Key:
Type in all cases: in vivo
C57/Bl6J DIO mice = assay: Increasing dosages of Compound 72 over 7 days in diet-induced obesity (DIO) mouse model; conditions: 10, 30, 100 mg/kg PO QD 7 days
Excerpt: Male C57/Bl6J DIO mice were obtained from The Jackson Laboratory (Sacramento, Calif.). […] Animals were accustomed to these conditions for at least 2 weeks before experimentation and used at approximately 24 weeks of age.
(§1) Significance was accepted when p<0.05.
Male C57/Bl6J DIO mice were obtained from The Jackson Laboratory (Sacramento, Calif.). […] Animals were accustomed to these conditions for at least 2 weeks before experimentation and used at approximately 26 weeks of age.

db/db mice [1] = assay: 7 day dosing, glucose metabolism, insulin and compound levels in db/db mouse model of type II diabetes; conditions: 50 mg/kg PO QD 7 days
Excerpt: as §1

db/db mice [2] = assay: Single dose at peak or nadir of clock gene expression, OGTT in db/db mouse model of type II diabetes; conditions: single dose 50 mg/kg PO at peak (ZT0) of Cry1 and Bmal1 expression
Excerpt: Mice were split into two study arms, to be dosed at either the peak or nadir of Cry1 and Bmal1 gene expression. […] Mice dosed at ZT10 were fasted beginning at 8:30 am in the same manner.
as §1

[3] = Pharmacokinetic analysis in ICR mice (plasma and liver); conditions: male, plasma, po, mouse, 50 mg/kg P.O., Table 4, read-out: Total Plasma AUC, AUC (0-last)
Description: Male ICR mice (weighing 30-40 g, Charles River Laboratories) were used for the experiment with n=3 mice for each experimental group (27 mice total for the study). […] Blood and liver tissue were collected at the following time points after administration: 15, 30, 60, 90 minutes, 3, 6, 12 and 24 hours. A control group of animals (TO) was also sampled. Animals were euthanized with CO2 and the blood collected from the heart using cardiac puncture, transferred to an EDTA tube, and then centrifuged at 5400 rpm for 5 minutes at 4° C. The resultant plasma was frozen using dry ice and then stored at −80° C. until ready for assay. Liver tissue was removed from each animal, 0.5 g was collected in an eppendorff, frozen and submitted for pharmacokinetic measurement.

[4] = Pharmacokinetic analysis in SD rats (plasma); conditions: male, po, rat, 50 mg/kg P.O., Table 4, read-out: Total Plasma AUC, AUC (0-last)
Description: Male SD rats (weighing 250-300 g, Charles River Laboratories) were used for the experiment with n=4 rats for each experimental group. […] Blood was collected at the following time points after administration: 15, 30, 60, 90 minutes, 3, 6, 12 and 24 hours. A pre-dose sample was also collected. Animals were cannulated by technical staff at Charles River, prior to delivery at Reset. Whole blood (0.3 ml) was collected from a cannula in the right common jugular vein at each time-point. The whole blood was transferred to an EDTA tube, and then centrifuged at 5400 rpm for 5 minutes at 4° C. The resultant plasma was frozen using dry ice and then stored at −80° C. until ready for assay. 0.9% Sodium Chloride (0.3 ml) was administered for fluid replenishment after each blood draw. 0.1 ml of Sodium Heparin (500 IU/ml) was used as a lock solution after the 12 hr time-point. Samples were assayed as described above.

Question: With O=C1NCCN1CC(O)Cn1c2ccc(F)cc2c2cc(F)ccc21 (centres unmarked) [Compound 72, 1-(3-(3,6-difluoro-9H-carbazol-9-yl)-2-hydroxypropyl)imidazolidin-2-one] as the compound, how does the “OGTT glucose excursion following a glucose load” value (C57/Bl6J DIO mice) read?
Answer: The value was “reduction in glucose excursion”.

Question: And the “OGTT glucose vs vehicle control group” value (db/db mice [1])?
Answer: Its value is “lower than the vehicle control group”.

Question: And the “effect on OGTT measurement” value (db/db mice [2])?
Answer: The value was “apparent effect”.

Question: What about the AUC(0-t) [3] of the same compound?
Answer: Its AUC(0-t) is 4160 ng·h/mL.

Question: And the AUC(0-t) [4]?
Answer: Its AUC(0-t) is 57900 ng·h/mL.
